# Reference: paper PMC11357484, “Investigating Changes in Pharmacokinetics of Steroidal Alkaloids from a Hydroethanolic Fritillariae thunbergii Bulbus Extract in 2,4-Dinitrobenzene Sulfonic Acid-Induced Colitis Rats” (Pharmaceuticals, 2024)
# Assays:
# [1] = test system: LPS-stimulated RAW 264.7 cells; test: Pro-inflammatory cytokine mRNA expression (qPCR) in LPS-stimulated RAW 264.7 cells; assay type: cell-based, mouse; conditions: 25 μg/mL; 24 h pretreatment then LPS 4 h; vs LPS alone
# Protocol: (§1) The RAW 264.7, a mouse macrophage cell line (American Type Culture Collection, Manassas, VA, USA), was grown in DMEM medium supplemented with 10% fetal bovine serum and 1% penicillin–streptomycin at 37 °C with 5% CO2.
# To evaluate the anti-inflammatory effects of the active ingredients in FTB, the cells were seeded in 12-well plates at 3 × 10^5 cells/mL and treated with 25 μg/mL of the four steroidal alkaloids, peimine, peimisine, peiminine and sipeimine, respectively, a concentration determined to be non-toxic according to the cell viability assay. LPS (Sigma-Aldrich, St. Louis, MO, USA) from Escherichia coli O111:B4 was used as a control at a concentration of 10 μg/mL. Cells were pretreated with the compounds for 24 h, followed by treatment with LPS for 4 h. After cells were harvested, total RNA was extracted using a total RNA extraction kit (Samjung Bioscience, Daejeon, Republic of Korea), and the extracted RNA was reverse transcribed into cDNA. The synthesized cDNA was subjected to quantitative polymerase chain reaction to measure the mRNA expression levels of cytokines using the following forward and reverse primers: IL-1β, forward, 5′-[…]-3′; reverse, 5′-[…]-3′; IL-6, forward, 5′-[…]-3′; reverse, 5′-[…]-3′; TNF-α, forward, 5′-[…]-3′; reverse, 5′-[…]-3′; GAPDH, forward, 5′-[…]-3′; reverse, 5′-[…]-3′.
# [2] = Pharmacokinetics of steroidal alkaloids after single oral FTB dose in normal and DNBS-induced colitis rats; assay type: in vivo, Sprague–Dawley rats; conditions: for AUC_%Extrap_obs / AUClast / AUMClast / Cmax / MRT last / Tmax / half-life: oral FTB 1 g/kg single dose, plasma, mean ± SD, n = 5; for Cmax / MRT last / Tmax / half-life: male, Sprague-Dawley, rat, po, 1 g/kg; for half-life under colitis compared with normal conditions / systemic exposure under colitis condition compared with normal state: oral FTB 1 g/kg, DNBS vs normal rats
# Protocol: Ten-week-old male Sprague–Dawley rats were obtained from Samtaco (Osan, Republic of Korea), quarantined, and acclimatized for one week before the experiments. All animal experiments were approved by the Animal Care and Use Committee of Chungnam National University (202304A-CNU-067). The rats were fasted for 14–16 h the day before administration of DNBS (Sigma-Aldrich). After the rats were anesthetized with isoflurane, the colitis group received a single dose of 30 mg/250 μL in 50% ethanol through a medical grade polyurethane catheter, injected rectally into the descending colon 8 cm from the anal sphincter. DNBS was administered slowly over 1 min, and the rats were kept supine in the Trendelenburg position for 3 min after injection to prevent leakage. The normal group received only 50% ethanol, following the same procedure as described above. The pharmacokinetic study was performed four days after DNBS administration, and both the normal and DNBS groups were orally administered a single dose of 1 g/kg FTB. Blood samples were obtained from the tail vein at 0, 0.5, 0.75, 1, 2, 4, 6, 8, 10, 12, 24, and 30 h, and the rats were sacrificed after the last blood collection. The plasma samples obtained were centrifuged at 16,000× g for 15 min and stored at −80 °C until analysis.
# Plasma concentrations were measured using UPLC-MS/MS (Agilent Technologies Inc.) in the same manner as described above. 100 μL of plasma was vortexed with 20 μL ammonia water and 800 μL ethyl acetate for 15 min and centrifuged at 16,000× g for 15 min. After evaporating 800 μL of the supernatant under nitrogen at 40 °C, 50 μL of 50% methanol was added. The mixture was then vortexed and centrifuged, and 5 μL of the final extract was used for analysis.
# For the plasma concentration analysis, the limit of detection and limit of quantification (LOQ) were defined based on the concentration of the analyte, which generated signal-to-noise (S/N) ratios of 3 and 10, respectively, following the “Guideline on Bioanalytical Method Validation” for the Ministry of Food and Drug Safety in Korea (MFDS 2023). Among the active ingredients of FTB, peimine, peimisine, peiminine, and sipeimine were detected in concentrations above the LOQ —the multiple reaction monitoring conditions of each of them are summarized in Supplementary Table S2. The calibration curves were linear over the concentration range of 0 to 2000 ng/mL, with a correlation coefficient of R^2 > 0.99. Precision and accuracy were evaluated by calculating the intra- and inter-day recoveries of quality control samples at three concentrations: 10, 50, and 100 ng/mL. The intra- and inter-day recoveries were within the range of 84.6 to 115.6%, and the coefficient of variation was less than 10%. Detailed validation results for the analysis method of peimine, peimisine, peiminine, and sipeimine are summarized in Supplementary Table S3.
# The pharmacokinetic parameters were calculated based on a non-compartmental model using Monolix 2023R1 (Lixoft SAS, Simulations Plus Inc., Lancaster, CA, USA). The dosage of each component was calculated based on the content of the component within the FTB, and applied in the pharmacokinetics analysis. From the data analyzed, the Cmax of FTB and the time to Cmax (Tmax) were determined. Elimination half-life was obtained by linear regression of log-tranformed concentration data in the late phase. The AUC was estimated using the linear log-trapezoidal and linear up-log-down rules for the time of final concentration in each group.
# [3] = cited from earlier work
# RAW 264.7 cells = test: Cell viability (EZ-Cytox) in RAW 264.7 cells; assay type: cell-based, mouse; conditions: 24 h incubation
# Protocol: as §1
# To determine cell viability against the four steroidal alkaloids, peimine, peimisine, peiminine, and sipeimine, RAW 264.7 cells were seeded at a density of 5 × 10^4 cells/well in 96-well plates and incubated overnight. Cells were then incubated with various concentrations of the four compounds (0, 0.78, 1.56, 3.13, 6.25, 12.5, 25, 50, and 100 μg/mL) for 24 h, respectively. Subsequently, 10 μL of EZ-Cytox (DoGenBio Co., Seoul, Republic of Korea) was added and incubated for 1 h. Absorbance was measured at 450 nm using an enzyme-linked immunosorbent assay reader (Bio-Rad Laboratories, Hercules, CA, USA). Cell viability was calculated by comparing the values measured with those of untreated cells.
Compound,AUC_%Extrap_obs ([2]; DNBS-treated (colitis) rats) [%],AUClast ([2]; DNBS-treated (colitis) rats),AUMClast ([2]; DNBS-treated (colitis) rats),Cmax ([2]; DNBS-treated (colitis) rats) [ng/mL],MRT last ([2]; DNBS-treated (colitis) rats) [h],Tmax ([2]; DNBS-treated (colitis) rats) [h],half-life ([2]; DNBS-treated (colitis) rats) [h],Cmax ([2]; normal rats) [ng/mL],MRT last ([2]; normal rats) [h],Tmax ([2]; normal rats) [h],half-life ([2]; normal rats) [h],AUC_%Extrap_obs ([2]; normal rats) [%],AUClast ([2]; normal rats) [h∗ng/mL],AUMClast ([2]; normal rats),half-life under colitis compared with normal conditions [2],systemic exposure under colitis condition compared with normal state [2],pKa [3],partition coefficient (logP) [3],concentrations at which no toxicity was shown (cell viability) (RAW 264.7 cells) [ng/mL],further results
C[C@H]1CC[C@@H]2N(C1)C[C@H]1[C@@H]3C[C@H]4[C@@H](CC(=O)[C@H]5C[C@@H](O)CC[C@@]54C)[C@@H]3CC[C@@H]1[C@]2(C)O [peiminine],3.3 ± 2.9,888.8 ± 286.0 h∗ng/mL,3149.7 ± 1242.0 h∗h∗ng/mL,209 ± 51.1,3.6 ± 0.6,1.3 ± 0.8,1.8 ± 0.9,228 ± 110,4.7 ± 1.1,1 ± 0.2,4.5 ± 2,14.5 ± 15.7,1172.4 ± 392.3,5302.0 ± 1844.3 h∗h∗ng/mL,shorter half-life,no observable difference,approximately 14,3.9,0 to 25000,IL-6 mRNA expression lowered [1]: approximately 5 fold
CC1=C2C[C@H]3[C@@H](CC(=O)C4C[C@@H](O)CC[C@@]43C)[C@@H]2CC[C@]12OC1C[C@H](C)CN[C@H]1[C@H]2C (some centres unmarked) [peimisine],8.9 ± 11.6,"16,895.4 ± 5782.1 h∗ng/mL","126,755.7 ± 54,141.2 h∗h∗ng/mL",2330 ± 363,7.3 ± 1.3,1.5 ± 0.8,7.7 ± 4.9,656 ± 672,5 ± 2,0.9 ± 0.2,3.9 ± 1.7,5.3 ± 4.0,3959.3 ± 4738.6,"23,522.8 ± 33,482.7 h∗h∗ng/mL",–,approximately five times higher,approximately 14,2.7,0 to 25000,IL-1β mRNA expression lowered [1]: about 6 fold; TNF-α mRNA expression lowered [1]: ~3 fold
C[C@H]1CC[C@@H]2N(C1)C[C@H]1[C@@H]3C[C@H]4[C@@H](C[C@H](O)[C@H]5C[C@@H](O)CC[C@@]54C)[C@@H]3CC[C@@H]1[C@]2(C)O [peimine],6.6 ± 6.6,1076.9 ± 444.1 h∗ng/mL,2819.7 ± 1408.9 h∗h∗ng/mL,351 ± 150,2.7 ± 0.6,1 ± 0.7,1.9 ± 0.7,356 ± 253,3.7 ± 0.8,0.7 ± 0.2,4 ± 2.5,6.7 ± 5.5,1311.8 ± 762.6,4511.4 ± 2253.8 h∗h∗ng/mL,shorter half-life,no observable difference,–,4.1,0 to 25000,–
C[C@H]1CC[C@@H]2N(C1)C[C@H]1[C@@H]3C[C@H]4[C@@H](CC(=O)[C@H]5C[C@@H](O)CC[C@@]54C)[C@@H]3CC[C@H]1[C@]2(C)O [sipeimine],11.0 ± 8.3,764.0 ± 285.5 h∗ng/mL,3588.3 ± 1486.0 h∗h∗ng/mL,162 ± 97,4.7 ± 0.6,2.4 ± 1.2,3.2 ± 1.6,64.7 ± 13.4,5.4 ± 1.7,1.3 ± 0.5,6.9 ± 5.6,10.4 ± 8.6,463.5 ± 232.8,2675.8 ± 2026.3 h∗h∗ng/mL,shorter half-life,no observable difference,approximately 14,4.4,0 to 25000,–
